Data from US20240180855A1, “BIOACTIVE PRODUCTS” (priority 2021, published 2024).
Several values for one entry are separate records, joined by “and”; a condition that tells them apart may be missing. Equal values may be shown once. Read-outs that look alike come from different tables or passages of the source.

How the values were obtained:
wheat [1] = assay: Wheat growth after seed treatment with reverse transcription, integration and protease inhibitors (Example 4); format: in vivo; details: seeds treated 1 hour at 37° C.; cultivation 23° C.
[2] = tested on: Wheat seeds (Triticum aestivum L.); assay: Wheat seed germination on potato dextrose agar after soaking in products (Example 1); format: in vivo; details: seeds soaked 1 hour; nucleases 100 μg/ml at 37° C., M4 group products 0.5%
Text: Wheat seeds (Triticum aestivum L., healthy, not infected) were washed with water with soap, then without soap. […] Then the seeds (8 pieces) were laid out on potato dextrose agar (https://himedialabs.com/TD/M096.pdf). Treatment with test products.

[3] = tested on: Wheat seeds (Triticum aestivum L.); assay: Wheat growth under stress conditions (18° C.) after seed soaking (Example 2); format: in vivo; details: seeds soaked 1 hour at 37° C., 100 μg/ml, cultivation 18° C.; for Root length (cm) / Shoot length (cm): after 5 days
Protocol: The cultivation temperature was 18° C., instead of the required 23° C. The assessment of the state of the plants was carried out after 5 days (table 2).

wheat [4] = assay: Wheat growth after one-time watering with products (Example 7); format: in vivo; parameters: Shoot length / Root length: unit not given here; details: one-time watering 1000 μg/ml, 200 ml for 20 grains; day 5
wheat [5] = assay: Wheat growth after seed treatment with complexes of inhibitors and nucleases (Example 5); format: in vivo; details: seeds treated 1 hour at 37° C.; cultivation 23° C.
Protocol: Plant: wheat Treatment: The seeds were treated with various products for 1 hour, at 37° C. […] Cultivation temperature 23° C.

[6] = tested on: Fish (Trout) fish eggs contaminated with various pathogens
[7] = tested on: Fungi of the Saprolegnia spp.; assay: Time to inactivation of Saprolegnia fungi (Example 15); format: cell-based; parameters: key: —: No antimicrobial activity
Protocol: Fungi in the amount of 10e8 cells were added to 1.0 ml of a solution of the test substance and after incubation were washed by PBS with centrifugation, resuspended in buffer, and plated on potato agar to assess survival.

wheat [8] = details: in vivo
[9] = tested on: patients with seborrheic dermatitis; assay: Treatment of seborrheic dermatitis (Example 23); format: in vivo, human; details: excipient alone, regimen not given; assessed within 14 days
Protocol: The efficacy of the drugs was assessed within 14 days, using objective and subjective measures (the prevalence of the disease, the degree of inflammation and infiltration of skin elements, the severity of itching, peeling and crusting). Dermatoscopy was done using the Heine, mini 3000 LED.

wheat [10] = assay: Regulation of wheat development after seed treatment (Example 3); format: in vivo; details: seeds treated 1 hour at 37° C.; cultivation 23° C.
Protocol: Plant: wheat. Treatment: The wheat seeds were treated with various nucleases or products of the M4 group for 1 hour, at 37° C. […] Cultivation temperature 23° C.

[11] = tested on: Red Turkish Carnation Seeds; assay: Full cycle of plant growth after seed treatment with nucleases (Example 12); format: in vivo; details: seeds incubated with 100 μg/ml at 37° C. for 60 minutes

Nc1nc(NC2CC2)c2ncn([C@H]3C=C[C@@H](CO)C3)c2n1 [Abacavir]
Chlorophyll total (wheat [1]): 51.8 mg/g | Emergence (%) (wheat [1]): 50% | Root lenght (median) (wheat [1]): 11 | Shoot length (median) (wheat [1]): 13

[H]/N=C(\N/C(=N/[H])NCCCCCCNC(=N)NC(=N)Nc1ccc(Cl)cc1)Nc1ccc(Cl)cc1 [Chlorhexidine]
Germination (%) at day 5 Day 3 [2]: 54% | Median shoot length (mm) Day 3 [2]: 14.6 mm | Emergence at day 5 [3]: 53% | Root length (cm) [3]: 1.9 cm | Shoot length (cm) [3]: 6.3 cm | Emergence (%) (wheat [4]): 50% | Root length (wheat [4]): 3.6 | Shoot length (wheat [4]): 6.9

COc1cc2c(cc1Cc1cccc(Cl)c1F)c(=O)c(C(=O)O)cn2[C@H](CO)C(C)C [Elvitegravir]
Emergence at day 5 [3]: 65% | Root length (cm) [3]: 2.6 cm | Shoot length (cm) [3]: 9.9 cm

Cc1cc(C#N)cc(C)c1Oc1nc(Nc2ccc(C#N)cc2)nc(N)c1Br [Etravirine]
Chlorophyll total (wheat [1]): 58.7 mg/g | Emergence (%) (wheat [1]): 55% | Root lenght (median) (wheat [1]): 9 | Shoot length (median) (wheat [1]): 13 | Chlorophyll total (wheat [5]): 25.0 mg/g | Emergence (%) (wheat [5]): 75% | Root lenght (wheat [5]): 5.5 | Shoot length (wheat [5]): 7.4

Nc1ccn([C@@H]2CS[C@H](CO)O2)c(=O)n1 [Lamivudine]
Chlorophyll total (wheat [1]): 54.3 mg/g | Emergence (%) (wheat [1]): 55% | Root lenght (median) (wheat [1]): 9 | Shoot length (median) (wheat [1]): 13

CN(C)c1ccc(C(=C2C=CC(=[N+](C)C)C=C2)c2ccccc2)cc1 [Malachite green]
Growth after plating [6]: Lawn

OC[C@@H](O)[C@@H](O)[C@H](O)[C@H](O)CO [Mannit (0.01%), Mannitol]
Time (minutes) to reach 100% inactivation ([7]; 0.005%): — | Time (minutes) to reach 100% inactivation ([7]; 0.01%): — | Time (minutes) to reach 100% inactivation ([7]; 0.05%): — | Time (minutes) to reach 100% inactivation ([7]; 0.1%): — | Time (minutes) to reach 100% inactivation ([7]; 0.5%): —

CN(C)c1ccc2nc3ccc(=[N+](C)C)cc-3sc2c1 [Methylene blue]
Growth after plating [6]: Lawn

O=P([O-])([O-])O.[Na+].[Na+] [Na2HPO4 (0.01%), Na2HPO4]
Root length (cm) (wheat [8]): 7.7 cm and 5.9 cm | Seedling length (cm) (wheat [8]): 8.4 cm and 6.1 cm | Time (minutes) to reach 100% inactivation ([7]; 0.005%): — | Time (minutes) to reach 100% inactivation ([7]; 0.01%): — | Time (minutes) to reach 100% inactivation ([7]; 0.05%): — | Time (minutes) to reach 100% inactivation ([7]; 0.1%): — | Time (minutes) to reach 100% inactivation ([7]; 0.5%): —

Cc1ccnc2c1NC(=O)c1cccnc1N2C1CC1 [Nevirapine]
Chlorophyll total (wheat [1]): 52.9 mg/g | Emergence (%) (wheat [1]): 25% | Root lenght (median) (wheat [1]): 0 | Shoot length (median) (wheat [1]): 0

Cc1nnc(C(=O)NC(C)(C)c2nc(C(=O)NCc3ccc(F)cc3)c(O)c(=O)n2C)o1 [Raltegravir]
Emergence at day 5 [3]: 71% | Root length (cm) [3]: 2.6 cm | Shoot length (cm) [3]: 9.8 cm | Chlorophyll total (wheat [1]): 56.9 mg/g | Emergence (%) (wheat [1]): 60% | Root lenght (median) (wheat [1]): 8 | Shoot length (median) (wheat [1]): 12 | Chlorophyll total (wheat [5]): 25.9 mg/g | Emergence (%) (wheat [5]): 42% | Root lenght (wheat [5]): 1.9 | Shoot length (wheat [5]): 5.7

C[C@H](Cn1cnc2c(N)ncnc21)OCP(=O)(O)O [Tenofovir]
Chlorophyll total (wheat [1]): 57.7 mg/g | Emergence (%) (wheat [1]): 45% | Root lenght (median) (wheat [1]): 9 | Shoot length (median) (wheat [1]): 14

O=S(=O)([O-])[O-].[Zn+2] [ZnSO4 0.01%, ZnSO4]
Root length (cm) (wheat [8]): 5.7 cm and 7.1 cm | Seedling length (cm) (wheat [8]): 6.1 cm and 8.0 cm | Time (minutes) to reach 100% inactivation ([7]; 0.005%): — | Time (minutes) to reach 100% inactivation ([7]; 0.01%): — | Time (minutes) to reach 100% inactivation ([7]; 0.05%): — | Time (minutes) to reach 100% inactivation ([7]; 0.1%): — | Time (minutes) to reach 100% inactivation ([7]; 0.5%): —* | Day at which prevalence of the symptoms was reduced by 80% [9]: >14 days

DNAse
Germination (%) at day 5 Day 3 [2]: 75% | Median shoot length (mm) Day 3 [2]: 24.6 mm | Emergence at day 5 [3]: 64% | Root length (cm) [3]: 2.1 cm | Shoot length (cm) [3]: 6.9 cm | Chlorophyll total (wheat [10]): 49.1 | Emergence (%) (wheat [10]): 67% | Leaf length (cm) (wheat [10]): 2.8 cm | Leaf width (cm) (wheat [10]): 1.4 cm | Number of leaves (wheat [10]): 2 + 1 | Root length (cm) (wheat [10]): 15.2 cm | Shoot length (cm) (wheat [10]): 5.8 cm | Weight (wheat [10]): 0.6 g | Chlorophyll total (wheat [5]): 24.7 mg/g | Emergence (%) (wheat [5]): 73% | Root lenght (wheat [5]): 3.6 | Shoot length (wheat [5]): 5.2 | Emergence (%) [11]: 95% | Height on day 99 [11]: 7+/−1 | Root branching at 99 days (words in the root length cell) [11]: branched | Root length at 99 days [11]: 7+/−0.5 | The appearance of the first leaves [11]: 5th day | The beginning of flowering [11]: 183 days | The emergence of the buds [11]: 174 days | Weight of seeds on day 258/12 plants [11]: 0.24 g

Trypsin
Chlorophyll total (wheat [5]): 30.3 mg/g | Emergence (%) (wheat [5]): 49% | Root lenght (wheat [5]): 5.8 | Shoot length (wheat [5]): 2.5
